Laboratory results: patent publication EP0374919A1, “Morphine derivative” (Chugai Seiyaku Kabushiki Kaisha, priority 1988, dated 1990)
Like-named read-outs stand apart in the source and are kept apart here.

Legend:
[1] = system: extirpated guinea pig ileum pieces; assay: Transmural electric stimulation test on an extirpated guinea pig ileum piece (smooth muscle contraction); assay type: cell-based; conditions: for pD₂: transmural electric stimulation 0.1 Hz, smooth muscle contraction
Procedure: Example 7 Transmural Electric Stimulation Test on an Extirpated Guinea Pig Ileum Piece:
The effects of the compounds were examined by applying transmural electric stimulation (0.1 Hz) to extirpated guinea pig ileum pieces while using the smooth muscle contraction as an indication [refer to H.K. Kopsterlitz, A.A. Waterfield; Annu. Rev. Pharmacol., 15, 29 - 47 (1975)].
The data shown in Table 1 were calculated according to a method reported by Arunlakshana and Schild [refer to 0. Arunlakashana, H.O. Schild; Brit. J. Pharmacol., 14, 48 - 58 (1959)]. Each value is expressed in mean ± standard deviation.

male mice (Slc: ddy) [2] = assay: Analgesic examination by radiant heat-stimulation test (tail irradiation, pain threshold); assay type: in vivo; conditions: for analgesic effect (pain threshold): range 0.03 to 1.0 mg/kg
Procedure: Example 6 Analgesic Examination by Radiant Heat-Stimulation Test:
Each group had 7 animals. An hour after the injection, the analgesic effect of each compound was examined by radiant heat-stimulation test [refer to A.G. Hayes, M.J. Sheehan, M.B. Tyers; Brit. J. Pharmacol., 91, 111 - 115 (1987)]. Namely, the tail of each mouse was irradiated with intense light and the time required until the animal switched its tail was measured. The value thus measured was referred to as the pain threshold.

male mice (Slc: ddy) [3] = assay: Analgesic effect examined by acetic acid-writhing test; assay type: in vivo; conditions: subcutaneous injection 30 minutes before 0.6% acetic acid i.p., writhings counted within 10 minutes, 7 mice per group
Procedure: Example 8 Analgesic Effect Examined by Acetic Acid- Writhing Test:
Male mice (Slc: ddy) aged 5 weeks were divided into groups each having 7 animals. […] After 30 minutes, 0.6% acetic acid was intraperitoneally administered to each mouse in a dose of 0.1 ml/10 g. 10 minutes thereafter, the writhings thus induced were counted within 10 minutes. […] The acetic acid-writhing test was conducted according to a method reported by R. Koster, M. Anderson and E.I. Debeer [refer to Fed. Proc., 18, 412 (1959)].

[4] = antagonism by naloxone, method of Arunlakshana and Schild, mean ± standard deviation
[5] = subcutaneous, an hour after the injection, p < 0.01 in Dunnett's t-test
[6] = subcutaneous, an hour after the injection

| SMILES | pA₂ (naloxone) [1, 4] | pD₂ ([1]; mean ± standard deviation) | dose with statistically significant analgesic effect (male mice (Slc: ddy) [2]; [5]) | analgesic effect (pain threshold) (male mice (Slc: ddy) [2]; [6]) | ED₅₀ (male mice (Slc: ddy) [3]) | further results |
| --- | --- | --- | --- | --- | --- | --- |
| CN1CC[C@]23c4c5ccc(O)c4O[C@H]2[C@@H](O)C=C[C@H]3[C@H]1C5.Cl [Morphine hydrochloride, reference compound] | – | – | – | – | – | pA₂ (naloxone) [1]: 8.45 ± 0.13; dose with statistically significant analgesic effect (male mice (Slc: ddy) [2]; mouse, in vivo, sc): ≥ 3.2 mg/kg |
| CC(=O)Oc1ccc2c3c1O[C@H]1[C@H](SC(C)=O)C=C[C@H]4[C@@H](C2)N(CC2CC2)CC[C@@]341.Cl [Compound VII, 3-acetyl-6β-acetylthio-N-cyclopropylmethylnormorphine hydrochloride] | 7.80 ± 0.13 | 9.01 ± 0.16 | 1.0 mg/kg | analgesic effect depending on dose | 0.062 mg/kg | – |
| CCC(=O)Oc1ccc2c3c1O[C@H]1[C@H](SC(=O)CC)C=C[C@H]4[C@@H](C2)N(CC2CC2)CC[C@@]341 [Compound IX, 3-propionyl-6β-propionylthio-cyclopropylmethylnormorphine] | – | – | – | – | 0.047 mg/kg | – |
| CC(C)=CCN1CCC2(C)c3cc(O)ccc3CC1C2C (stereo not shown) [Pentazocine, reference compound] | – | – | – | – | – | ED50 (male mice (Slc: ddy) [3]; Mus musculus, sc, read-out: ED₅₀): 0.869 mg/kg |
| CC(=O)S[C@@H]1C=C[C@H]2[C@H]3Cc4ccc(O)c5c4[C@@]2(CCN3CC2CC2)[C@H]1O5 [Compound VI, 6β-acetylthio-N-cyclopropylmethylnormorphine] | 7.75 ± 0.12 | 8.38 ± 0.06 | 1.0 mg/kg | analgesic effect depending on dose | – | – |
